From BindingDB's records for patent US20240043403 (Astellas Pharma, 2024)

Target: Diacylglycerol kinase zeta (Homo sapiens, UniProt Q13574)
Assay: Evaluation of DGKdelta Inhibitory Effect
Experimental: To a 384-well plate (Greiner Bio-One Co., Ltd.), 3 μL of a DGK ξ enzyme dissolved in an assay buffer (40 mM Tris-HCl pH 7.5, 10 mM MgCl2, 1 mM dithiothreitol (DTT) and 0.1 mg/mL bovine serum albumin (BSA)) (90 ng/mL) was added, and 3 μL of the test compound diluted with the same assay buffer was added so that an intended final concentration was obtained. The mixture was left standing at room temperature for 15 minutes, 3 μL of a substrate (150 μM 1-oleoyl-2-acetyl-sn-glycerol (Sigma-Aldrich Co. LLC), 480 μM phosphatidylserine (Avanti, Inc.) and 150 μM UltraPure-ATP (attached to ADP-Glo)) was then added, and the mixture was left standing at room temperature for 30 minutes to react. Thereafter, 3 μL of an ADP-Glo Reagent was added, and the mixture was left standing at room temperature for 40 minutes to stop the enzyme reaction. Further, 6 μL of a Kinase-Detection Reagent was added, the mixture was left standing at room temperature for 30 minutes, and the luminescence was then measured using ARVO X3 (PerkinElmer, Inc.). The half maximal inhibitory concentration (IC50) was calculated by Sigmoid-Emax model non-linear regression analysis, where the signal value in solvent treatment was set to 0% inhibition and the signal value without addition of the DGK ξ enzyme was set to 100% inhibition.

Chain of Diacylglycerol kinase zeta (Q13574 whole entry): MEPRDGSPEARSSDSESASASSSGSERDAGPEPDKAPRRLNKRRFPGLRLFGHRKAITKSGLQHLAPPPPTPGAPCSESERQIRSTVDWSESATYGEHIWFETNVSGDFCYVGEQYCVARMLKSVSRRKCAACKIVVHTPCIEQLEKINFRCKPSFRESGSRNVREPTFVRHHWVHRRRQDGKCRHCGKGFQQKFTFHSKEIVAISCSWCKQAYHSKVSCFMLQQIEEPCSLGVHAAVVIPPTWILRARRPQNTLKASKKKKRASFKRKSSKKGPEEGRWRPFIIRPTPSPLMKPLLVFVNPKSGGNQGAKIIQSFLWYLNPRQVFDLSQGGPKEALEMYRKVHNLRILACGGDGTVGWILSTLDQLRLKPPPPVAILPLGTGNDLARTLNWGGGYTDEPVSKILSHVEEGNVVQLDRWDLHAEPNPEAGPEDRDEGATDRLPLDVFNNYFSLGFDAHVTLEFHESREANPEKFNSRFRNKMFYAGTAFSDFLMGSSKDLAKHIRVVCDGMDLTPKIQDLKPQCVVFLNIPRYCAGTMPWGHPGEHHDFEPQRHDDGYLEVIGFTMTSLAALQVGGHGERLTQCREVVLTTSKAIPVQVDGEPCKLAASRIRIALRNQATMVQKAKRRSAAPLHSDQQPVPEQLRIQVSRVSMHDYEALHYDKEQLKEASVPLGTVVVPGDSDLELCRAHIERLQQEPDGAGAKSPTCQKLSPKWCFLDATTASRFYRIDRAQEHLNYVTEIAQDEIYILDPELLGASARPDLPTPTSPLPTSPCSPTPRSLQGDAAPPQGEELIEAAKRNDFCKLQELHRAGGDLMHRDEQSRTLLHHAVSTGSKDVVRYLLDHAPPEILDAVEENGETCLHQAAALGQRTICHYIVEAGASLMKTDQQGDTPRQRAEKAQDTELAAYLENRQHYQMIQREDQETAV

IC50: 16 nM
Compound: NC[C@@H]1CCCN(c2c(NC(=O)c3ccn(CC(F)F)n3)ccc(Oc3ccccc3F)c2C(F)(F)F)C1 [US20240043403, Example 1]
